Columns and labels:
COX-1 = molecular target: T1, COX-1 (Homo sapiens, UniProt P23219); test: Assay for the COX-1 inhibitory activity using U-937; format: cell-based; conditions: 1 μM test compound; PGE2 inhibition in U-937 human lymphoma cells vs DMSO control; read-out: Cyclooxygenase (COX) Inhibition (%) COX-1 (1 μM)
T1 construct: host or cells: U-937 human lymphoma cells
Procedure: The collected cells were diluted with HBSS (x1, Hank's balanced salt solution) to a concentration of 1×10^6 cells/ml. 1 ml of the dilute cell solution was placed into each well of 12-well plates. 5 μl of 1 μM solution of a test compound in DMSO and 5 μl of DMSO as a control were added to the wells. The wells were incubated in CO2 incubator at 37° C. for 15 minutes. Separately, 10 mM stock solution of arachidonic acid in ethanol was diluted ten times in ethanol to prepare 1 mM solution of arachidonic acid. Arachidonic acid acts as a substrate. 10 μl of the 1 mM solution of arachidonic acid was added to each well and incubated at CO2 incubator at 37° C. for 30 minutes. The cell solution of each well was placed in a centrifuge test tube and centrifuged at 10,000 rpm at 4° C. for 5 minutes. The concentration of PGE2 in the collected cells and the supernatant was quantified by means of a monoclonal kit (Cayman Chemicals). The percentages of PGE2 inhibition in a group of the test compound-treated cells in relation to a group of the DMSO-treated cells were calculated. Based on the calculated values, the COX-1 inhibitory activities were evaluated.
(§1) % Inhibition=(concentration of PGE2 in test compound-untreated sample−concentration of PGE2 in test compound-treated sample)/(concentration of PGE2 in test compound-untreated sample)×100

COX-2 = molecular target: T2, COX-2 (Mus musculus, UniProt Q05769); test: Assay for the COX-2 inhibitory activity using RAW 264.7 cell line; format: cell-based; conditions: RAW264.7; 10 nM test compound; PGE2 in RAW 264.7 cells treated with interferon γ and LPS, 18 hours; read-out: Cyclooxygenase (COX) Inhibition (%) COX-2 (10 nM)
T2 construct: host or cells: RAW 264.7 cells, aspirin-pretreated, induced with interferon γ and LPS
T2 sequence (Q05769 18-604): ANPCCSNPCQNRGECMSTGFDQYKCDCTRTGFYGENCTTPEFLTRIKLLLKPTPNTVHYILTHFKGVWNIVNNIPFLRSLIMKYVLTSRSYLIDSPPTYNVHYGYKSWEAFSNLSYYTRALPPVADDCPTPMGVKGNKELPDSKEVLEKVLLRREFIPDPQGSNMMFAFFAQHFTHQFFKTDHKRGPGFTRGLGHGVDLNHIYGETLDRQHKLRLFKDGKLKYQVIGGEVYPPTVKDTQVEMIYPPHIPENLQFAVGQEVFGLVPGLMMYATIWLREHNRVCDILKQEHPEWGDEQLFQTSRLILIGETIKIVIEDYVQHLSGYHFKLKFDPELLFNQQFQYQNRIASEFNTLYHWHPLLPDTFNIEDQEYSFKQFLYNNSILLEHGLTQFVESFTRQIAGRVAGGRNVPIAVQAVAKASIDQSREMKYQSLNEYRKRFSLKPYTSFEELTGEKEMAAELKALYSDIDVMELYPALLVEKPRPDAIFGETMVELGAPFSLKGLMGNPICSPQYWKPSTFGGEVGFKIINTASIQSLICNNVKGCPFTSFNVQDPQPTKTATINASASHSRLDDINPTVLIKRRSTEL
Procedure: Each well was treated with 250 μM of aspirin and incubated at 37° C. for 2 hours. After the culture media were replaced with new culture media, the new culture media were treated with a test compound (10 nM) and incubated for 30 minutes. Then, each well was treated with interferon γ (100 units/ml) and lipopolysaccharide (LPS, 100 ng/ml) and incubated for 18 hours. The culture media were transferred to other test tubes. The concentration of PGE2 was quantified by means of the EIA kit (Cayman Chemicals).
as §1

T1 sequence (P23219 24-599): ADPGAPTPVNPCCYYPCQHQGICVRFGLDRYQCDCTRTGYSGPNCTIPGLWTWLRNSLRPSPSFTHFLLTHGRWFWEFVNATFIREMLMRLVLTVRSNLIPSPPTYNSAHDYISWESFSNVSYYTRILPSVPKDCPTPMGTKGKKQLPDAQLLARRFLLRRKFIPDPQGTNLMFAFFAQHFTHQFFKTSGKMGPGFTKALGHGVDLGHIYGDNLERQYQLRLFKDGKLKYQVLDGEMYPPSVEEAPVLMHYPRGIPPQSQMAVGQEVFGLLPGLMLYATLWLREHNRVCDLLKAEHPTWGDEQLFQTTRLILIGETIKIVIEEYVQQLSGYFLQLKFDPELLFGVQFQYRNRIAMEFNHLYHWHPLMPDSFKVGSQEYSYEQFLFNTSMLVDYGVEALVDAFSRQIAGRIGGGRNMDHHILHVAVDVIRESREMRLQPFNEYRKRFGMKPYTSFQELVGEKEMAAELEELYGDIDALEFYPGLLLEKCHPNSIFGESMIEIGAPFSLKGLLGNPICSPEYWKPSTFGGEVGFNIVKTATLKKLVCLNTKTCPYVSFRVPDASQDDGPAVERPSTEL

inhibition at 1 µM (COX-1)	inhibition at 0.01 µM (COX-2)	SMILES
9.8%	25.7%	Cn1c(-c2nc(C(F)(F)F)nn2-c2ccc(S(C)(=O)=O)cc2)cc2ccccc21 [Example 13, 1-methyl-2-[2-(4-methylsulfonylphenyl)-5-trifluoromethyl-2H-1,2,4-triazole-3-yl]-1H-indole]
24.3%	10.6%	CS(=O)(=O)c1ccc(-n2nc(C(F)(F)F)nc2-c2cc3ccccc3o2)cc1 [Example 11, 5-(benzofuran-2-yl)-1-(4-methylsulfonylphenyl)-3-trifluoromethyl-1H-1,2,4-triazole]
10.6%	23.3%	CS(=O)(=O)c1ccc(-n2nc(C(F)(F)F)nc2-c2ccc3ccccc3c2)nc1 [Example 17, 5-methanesulfonyl-2-[5-(naphthalene-2-yl)-3-trifluoromethyl-1,2,4-triazole-1-yl]pyridine]
26.3%	5.67%	CS(=O)(=O)c1ccc(-n2nc(C(F)(F)F)nc2-c2cc3ccccc3[nH]2)cc1 [Example 12, 2-[2-(4-methylsulfonylphenyl)-5-trifluoromethyl-2H-1,2,4-triazole-3-yl]-1H-indole]
22.3%	5.42%	CS(=O)(=O)c1ccc(-n2nc(C(F)(F)F)nc2-c2ccc3ccccc3n2)cc1 [Example 15, 2-[2-(4-methylsulfonylphenyl)-5-trifluoromethyl-2H-1,2,4-triazole-3-yl]quinoline]
32.9%	16.3%	NS(=O)(=O)c1ccc(-n2nc(C(F)(F)F)nc2-c2ccc3ccccc3c2)cc1 [Example 16, 4-[5-(naphthalene-2-yl)-3-trifluoromethyl-1,2,4-triazole-1-yl]benzenesulfonamide]
21.3%	6.02%	Cn1cc(-c2nc(C(F)(F)F)nn2-c2ccc(S(C)(=O)=O)cc2)c2ccccc21 [Example 14, 1-methyl-3-[2-(4-methylsulfonylphenyl)-5-trifluoromethyl-2H-1,2,4-triazole-3-yl]-1H-indole]
26.2%	12.3%	CS(=O)(=O)c1ccc(-n2nc(C(F)(F)F)nc2-c2ccc3ccccc3c2)cc1 [Example 10, 1-(4-methylsulfonylphenyl)-5-(naphthalene-2-yl)-3-trifluoromethyl-1H-1,2,4-triazole]

From patent US7230010B2, “1,2,4-triazole derivative, method for preparing the same, and pharmaceutical composition containing the same” (CJ Corp., priority 2002, dated 2007)
